Assays:
Assay type in all cases: in vivo
[1] = system: NZB/W F1 female mice; assay: Renal immunofluorescence of glomerular IgG and C3 deposition, murine lupus nephritis; settings: FIG. 7
Method: Renal immunofluorescence. For analysis of Ig and complement deposition, fluorescent staining of cryosections was used. Five-micrometer cryostat sections were fixed in acetone at −80° C. for 20 minutes, then blocked with 20% normal goat serum and directly stained with FITC-conjugated goat anti-mouse IgG at 1/300 (Sigma-Aldrich). To stain for complement, slides were then sequentially incubated in rat anti-mouse complement C3, at 1/50 (Cedarlane Laboratories Limited), followed by Alexa Fluor 546-conjugated goat anti-rat IgG at 1/1000 (Invitrogen, Molecular Probes). At least 30 glomeruli, visualized and photographed with an immunofluorescence microscope, from each animal were examined in a binded manner. A semiquantitative score of staining intensity and distribution from 0 to 4+ was given, where 0+ denotes no signal; 1+, minimal signal; 2+, low signal; 3+, moderate signal and 4+, strong signal intensity.

[2] = system: NZB/W F1 female mice; assay: Survival of NZB/W F1 mice with lupus nephritis under treatment; settings: intraperitoneal treatment from six to nine months of age
Method: Animals NZB/W F1 female mice (Charles River, Spain) were used. […] Mice were housed in a constant temperature room with a 12-hour dark/12-hour light cycle, and were given free access to water and a standard laboratory diet.
(§1) Treatment was given from six to nine old months. Body weight was determined twice a month. Mice were placed in metabolic cages to collect 24-hour urine specimens before treatment, and again at six, seven and eight months. Blood was obtained from the tail vein at the same intervals. At the end of the follow-up, survivor animals were sacrificed and kidney processed for histological studies.
Data are expressed as mean+SE. Overall survival was analyzed by the Kaplan-Meier method. […] All P-values were two-tailed, and a P-value <0.05 was considered significant.

[3] = system: NZB/W F1 female mice; assay: Anti-DNA antibodies in serum by ELISA, murine lupus nephritis; settings: FIG. 2
Method: Urinary protein concentration was determined by a commercial kit based on the Ponceau method (BayerDiagnostics, Madrid, Spain). Serum creatinine levels (in milligrams per decilitre) were determined by Jaffés method on an autoanalyzer (Beckman Instruments, Palo Alto, Calif.) at the end of the follow-up. Anti-DNA antibodies levels of anti-DNA antibodies were measured before treatment, and subsequently each month and at sacrifice, using a commercially available ELISA kit (Alpha Diagnostic International, San Antonio, Tex., USA) according to manufacturer's instructions (serum diluted 1:100). This kit is based on a purified dsDNA coated microwell plate. Antibodies to dsDNA are directed against the phosphate-deoxyribose backbone of the DNA molecule. Anti-dsDNA from serum samples bind to extracted nuclear antigen immobilized on microtiter wells. Anti-mouse IgG-HRP conjugate is added, and the colour developed by chromogenic substrate addition. The enzymatic reaction (blue colour) is directly proportional to the amount of the anti-dsDNA in the sample. Kits contain positive and negative controls, and anti-DNA antibodies are estimated in a semi-quantitative way according to the optical density (o.d. 450).

[4] = system: NZB/W F1 female mice; assay: Spleen weight and splenocyte B cell populations, murine lupus nephritis; settings: FIG. 9
[5] = system: NZB/W F1 female mice; assay: Proteinuria and renal function, murine lupus nephritis; settings: vs. control, FIG. 3
Method: as §1

O=P1(N(CCCl)CCCl)NCCCO1 (centres unmarked) [CYP, cyclophosphamide]
glomerular deposition of C3 [1]: more effective in reducing C3 deposition than costimulatory blockade | Cumulative survival analyzed by the Kaplan-Meier method [2]: 100% | anti-dsDNA titers [3]: lower | proportion of B cells in splenocytes [4]: markedly reduced | proteinuria [5]: significantly lower
